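1) Cells in 96-well plates. 2) Compound, 48 h, 5 concentrations. 3) Linear interpolation between surrounding doses. 4) Unreached endpoint = highest concentration. Abbreviation: GI50, concentration required for 50% inhibition of growth.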 The source made the active and inactive calls. No stated cut-off is given here; in the data, active = GI50 up to about 1.1 µM and inactive = higher.

13 molecules from ChEMBL document CHEMBL1201862, “PubChem BioAssay data set” (2004) can be followed below.

Some test systems named below: RPMI-8226; HCT-15; OVCAR-4; OVCAR-3; SK-MEL-28; HOP-62; LOX IMVI; SK-MEL-5; BT-549; U-251; PC-3; OVCAR-5; UACC-62; NCI-H226; Malme-3M; OVCAR-8; HOP-92; SNB-75; HCC 2998.
Holding throughout (experiment): growth of human tumour cells (NCI), 48 h

With `CCc1n[nH]c(=O)n1/N=C(\C)c1ccccc1`, the GI50 with RPMI-8226 was > 100 µM (inactive); with HCT-15 it was over 100 µM; in the assay on OVCAR-4, > 100 µM (inactive); in the assay with OVCAR-3 it was > 100 µM (inactive); in the assay on SK-MEL-28 it was > 100 µM (inactive); with HOP-62, > 100 µM (inactive). Besides, the GI50 in the assay on LOX IMVI, in the assay on SK-MEL-5, in the assay on BT-549, in the assay on U-251, in the assay with PC-3 and in the assay on OVCAR-5 was > 100 µM (inactive) in each case. In addition, the GI50 in the assay on UACC-62, in the assay on NCI-H226, with Malme-3M and with OVCAR-8 was > 100 µM (inactive) in each case.

Turning to `c1ccc(C[N+]23C(CC[C@H]2c2ccccc2)CC[C@H]3c2ccccc2)cc1` (stereo partly drawn), the GI50 was 2.94 µM (inactive) with RPMI-8226; 31 µM (inactive) with OVCAR-4; 14.3 µM (inactive) with OVCAR-3; 13.2 µM (inactive) with HOP-92; 34.6 µM (inactive) in the assay on SK-MEL-28; 21.4 µM (inactive) in the assay with SNB-75. The GI50 is 33.5 µM (inactive) in the assay with HOP-62; 29.2 µM (inactive) with LOX IMVI; 5.43 µM (inactive) with SK-MEL-5; 25.3 µM (inactive) in the assay on U-251; 26.7 µM (inactive) in the assay with PC-3; 86.1 µM (inactive) with OVCAR-5. Moreover, the GI50 is 22.1 µM (inactive) in the assay on NCI-H226, 18.2 µM (inactive) with Malme-3M and 30.2 µM (inactive) in the assay with OVCAR-8.

Consider `CN1C(C(=O)Nc2ccccn2)=C(O)c2ccccc2S1(=O)=O` [PIROXICAM], for which the GI50 in the assay on RPMI-8226 was > 100 µM (inactive); with HCT-15, over 100 µM; in the assay on OVCAR-4, > 100 µM (inactive); with OVCAR-3, > 100 µM (inactive); in the assay with SK-MEL-28, > 100 µM (inactive); in the assay on SNB-75, > 100 µM (inactive). Also, the GI50 in the assay with HOP-62 was > 100 µM (inactive); in the assay on LOX IMVI, > 100 µM (inactive); in the assay with SK-MEL-5 it was > 100 µM (inactive); in the assay with BT-549, 15.3 µM (inactive); with U-251, > 100 µM (inactive); in the assay on PC-3, > 100 µM (inactive). Moreover, the GI50 in the assay with OVCAR-5, with UACC-62, in the assay with NCI-H226, in the assay with Malme-3M and in the assay on OVCAR-8 was > 100 µM (inactive) each time.

As to `O=C(Nc1nc2ncn(CCI)c2c(=O)[nH]1)c1ccccc1`, the GI50 with RPMI-8226 was > 100 µM (inactive); in the assay with HCT-15 it was 98.6 µM; in the assay on OVCAR-4, > 100 µM (inactive); with OVCAR-3, 52.8 µM (inactive); with HOP-92, 27.9 µM (inactive); in the assay with SK-MEL-28, > 100 µM (inactive). Moreover, the GI50 was 20.5 µM (inactive) in the assay with SNB-75; 30.1 µM (inactive) in the assay with HOP-62; > 100 µM (inactive) in the assay on LOX IMVI; > 100 µM (inactive) in the assay on SK-MEL-5; > 100 µM (inactive) with HCC 2998; 28.3 µM (inactive) in the assay with U-251. The GI50 was > 100 µM (inactive) in the assay with OVCAR-5; 53.8 µM (inactive) in the assay with UACC-62; 23.4 µM (inactive) in the assay with NCI-H226; > 100 µM (inactive) in the assay with Malme-3M; 31.2 µM (inactive) in the assay on OVCAR-8.

Take `CC(C)OC(=O)NNc1cccc(Cl)c1`: the GI50 with RPMI-8226 is 66.1 µM (inactive); in the assay on HCT-15 it was over 100 µM; with OVCAR-3 it was > 100 µM (inactive); with HOP-92 it was > 100 µM (inactive); in the assay on SK-MEL-28, > 100 µM (inactive); with SNB-75, > 100 µM (inactive). The GI50 with HOP-62 is > 100 µM (inactive); in the assay on LOX IMVI, 65.8 µM (inactive); with SK-MEL-5 it was > 100 µM (inactive); in the assay with HCC 2998, > 100 µM (inactive); in the assay on U-251, > 100 µM (inactive); in the assay on PC-3, > 100 µM (inactive). In addition, the GI50 was > 100 µM (inactive) with OVCAR-5; 38.4 µM (inactive) in the assay on UACC-62; > 100 µM (inactive) in the assay with NCI-H226; > 100 µM (inactive) with Malme-3M; > 100 µM (inactive) in the assay on OVCAR-8.

Take `O=C1c2cccc3cc([N+](=O)[O-])cc(c23)C(=O)N1CCNCCNCCNCCN1C(=O)c2cccc3cc([N+](=O)[O-])cc(c23)C1=O`: the GI50 was 0.01 µM (active) with RPMI-8226; 0.01 µM with HCT-15; 0.0117 µM (active) in the assay on OVCAR-4; 0.109 µM (active) in the assay on OVCAR-3; 0.00343 µM (active) in the assay with HOP-92; 0.0311 µM (active) in the assay with SK-MEL-28. In addition, the GI50 in the assay with SNB-75 is 0.0108 µM (active); in the assay on HOP-62, 0.00143 µM (active); with SK-MEL-5, 0.152 µM (active); in the assay with HCC 2998 it was 0.01 µM (active); in the assay on U-251, 0.00198 µM (active); in the assay with OVCAR-5 it was 0.0111 µM (active). Further, the GI50 in the assay on UACC-62 was 0.00322 µM (active); in the assay on NCI-H226, 0.124 µM (active); with Malme-3M, 0.111 µM (active); in the assay with OVCAR-8, < 0.001 µM (active).

Consider `[O-][n+]1onc2c1CCC(=N\O)/C2=N/Nc1ccccc1`, for which the GI50 was > 100 µM (inactive) in the assay with RPMI-8226; over 100 µM with HCT-15; > 100 µM (inactive) in the assay with OVCAR-4; > 100 µM (inactive) in the assay with OVCAR-3; > 100 µM (inactive) in the assay with SK-MEL-28; > 100 µM (inactive) in the assay on SNB-75. For the same molecule, the GI50 in the assay on HOP-62, in the assay on LOX IMVI, with SK-MEL-5, with PC-3, in the assay on OVCAR-5 and in the assay on UACC-62 was > 100 µM (inactive) each time. Further, the GI50 with NCI-H226, with Malme-3M and in the assay with OVCAR-8 was > 100 µM (inactive) throughout.

In the case of `Cc1ccccc1-n1c(=O)c2ncn(C3CCCO3)c2n(-c2ccccc2C)c1=S` (stereo not drawn), the GI50 with RPMI-8226 is > 100 µM (inactive); in the assay with HCT-15 it was over 100 µM; in the assay with OVCAR-4 it was > 10 µM (inactive); in the assay on OVCAR-3, > 100 µM (inactive); in the assay with HOP-92, > 100 µM (inactive); with SNB-75, 79.4 µM (inactive). Moreover, the GI50 with HOP-62, in the assay on LOX IMVI, in the assay with SK-MEL-5, in the assay with HCC 2998, with BT-549 and in the assay on OVCAR-5 was > 100 µM (inactive) each time. Moreover, the GI50 in the assay with UACC-62, in the assay on NCI-H226, in the assay with Malme-3M and with OVCAR-8 was > 100 µM (inactive) in each case.

Consider `CCCCCCCCCC(=O)NC(CCC(=O)N(CCNC(=O)c1nc(-c2ccccc2)oc1-c1ccccc1)Cc1ccccc1)C(=O)O` (stereo not drawn), for which the GI50 is 17.3 µM (inactive) with RPMI-8226; 16 µM with HCT-15; 20.5 µM (inactive) with OVCAR-4; 16.3 µM (inactive) with OVCAR-3; 17.6 µM (inactive) in the assay with HOP-92; 22.3 µM (inactive) in the assay with SK-MEL-28. Further, the GI50 with SNB-75 is 14.5 µM (inactive); with HOP-62, 16.4 µM (inactive); in the assay on LOX IMVI it was 18.6 µM (inactive); in the assay on SK-MEL-5, 16.2 µM (inactive); in the assay with BT-549, 19.3 µM (inactive); in the assay on U-251, 18.9 µM (inactive). For the same molecule, the GI50 was 17.1 µM (inactive) in the assay on OVCAR-5, 23.8 µM (inactive) in the assay with NCI-H226, 16.4 µM (inactive) in the assay on Malme-3M and 17.5 µM (inactive) in the assay with OVCAR-8.

Consider `Nc1cc(CO)cc(Nc2c3ccccc3nc3ccccc23)c1`, for which the GI50 with RPMI-8226 is 29.8 µM (inactive); in the assay with HCT-15 it was 17.6 µM; with OVCAR-4, 16 µM (inactive); in the assay on OVCAR-3 it was 18.2 µM (inactive); in the assay on SK-MEL-28, 17.8 µM (inactive); in the assay with SNB-75 it was 15.8 µM (inactive). Besides, the GI50 with HOP-62 is 14.7 µM (inactive); with LOX IMVI, 16.7 µM (inactive); with SK-MEL-5, 17 µM (inactive); in the assay with BT-549, 14.5 µM (inactive); with U-251, 15.1 µM (inactive); in the assay with PC-3 it was 15.5 µM (inactive). Further, the GI50 with OVCAR-5 was 16.7 µM (inactive); in the assay with UACC-62, 17.4 µM (inactive); in the assay with NCI-H226 it was 18.2 µM (inactive); with Malme-3M, 16.5 µM (inactive); with OVCAR-8, 15.9 µM (inactive).

In the case of `CCc1cccc(C(C)C)c1NC(=O)CCl`, the GI50 with RPMI-8226 was > 100 µM (inactive); in the assay on HCT-15 it was over 100 µM; in the assay on OVCAR-3, > 100 µM (inactive); in the assay on HOP-92 it was > 100 µM (inactive); in the assay on SK-MEL-28 it was > 100 µM (inactive); in the assay with SNB-75 it was 37.5 µM (inactive). Besides, the GI50 in the assay on LOX IMVI is 80.7 µM (inactive); in the assay with U-251 it was 85.1 µM (inactive); with UACC-62, 45.1 µM (inactive); in the assay on NCI-H226 it was > 100 µM (inactive); with Malme-3M it was > 100 µM (inactive).

As for `CCOC(=O)c1cc(-c2ccc(OC)cc2)c([N+](=O)[O-])n1C`, the GI50 is over 10 µM in the assay on HCT-15; > 10 µM (inactive) with OVCAR-4; > 10 µM (inactive) in the assay with OVCAR-3; > 10 µM (inactive) in the assay with HOP-92; > 10 µM (inactive) with SNB-75; > 10 µM (inactive) in the assay with HCC 2998. The GI50 with BT-549, in the assay with U-251, with OVCAR-5, in the assay on UACC-62, in the assay on NCI-H226 and in the assay with Malme-3M was > 10 µM (inactive) in each case. Further, in the assay on OVCAR-8, the GI50 is > 10 µM (inactive).

Take `Cc1ccc(-n2cc(-c3ccc(Cl)cc3)c3c(NN)ncnc32)cc1`: the GI50 in the assay on HCT-15 was 4.4 µM; with OVCAR-4 it was 1.73 µM (inactive); in the assay with OVCAR-3, 0.357 µM (active); in the assay with HOP-92 it was 2.97 µM (inactive); in the assay with SK-MEL-28, 3.66 µM (inactive); in the assay with SNB-75 it was 1.39 µM (inactive). Moreover, the GI50 with HOP-62 is 2.43 µM (inactive); in the assay with LOX IMVI, 4.68 µM (inactive); in the assay on SK-MEL-5, 1.57 µM (inactive); in the assay on HCC 2998, 2.89 µM (inactive); in the assay on U-251 it was 1.82 µM (inactive); with PC-3, 5.55 µM (inactive). Further, the GI50 is 6.43 µM (inactive) in the assay with OVCAR-5; 2.67 µM (inactive) with UACC-62; 2.38 µM (inactive) with NCI-H226; 3.1 µM (inactive) with Malme-3M; 3.24 µM (inactive) in the assay with OVCAR-8.
